Measured values as given in US20240391921A1, “CRYSTAL FORM OF IMIDAZOLINONE DERIVATIVE” (CHENGDU BAIYU PHARMACEUTICAL CO., LTD., priority 2021, published 2024).

Legend:
[1] = Dynamic vapor sorption (DVS) test; format: physicochemical
Experimental: The crystalline form I of Compound A prepared in Example 3 was subjected to dynamic vapor sorption test, and the dynamic vapor sorption (DVS) curves were acquired on DVS Intrinsic of SMS (Surface Measurement Systems). The relative humidity at 25° C. was corrected with the deliquescence points of LiCl, Mg (NO3)2, and KCl.

[2] = Solid-state stability (XRPD for physical, HPLC purity for chemical stability); format: physicochemical
[3] = Pharmacokinetic assay in ICR mice; format: in vivo; settings: male ICR mice, iv 1 mg/kg and po 10 mg/kg, plasma by LC/MS/MS
Experimental: ICR mice (purchased from Beijing Viton Lihua Laboratory Animal Technology Co.)
2.2 Experimental procedure • (1) Healthy male ICR mice (18-22 g) were prepared, with 18 mice for each compound which were divided into 2 groups (iv and po groups) of 9 mice each, and 3 mice were selected for blood collection at each time point. • (2) After fasting (free water intake) overnight, the compound of the invention was solubilized (or formed into a suspension) with 5% DMSO, 95% 30% HP-β-CD (v: v) as solvent. The compound was administered via the tail vein (iv, 1 mg/kg) and by gavage (po, 10 mg/kg), respectively. • (3) In the iv group, 0.1 mL of blood was collected from the submandibular vein at 5 min, 15 min, 0.5 h, 1 h, 2 h, 4 h, 8 h, 12 h, and 24 h, respectively, and the blood was anticoagulated with EDTA-K2, and then centrifuged at 4° C. for 5 min to separate the plasma, which was stored at-20° C. before measurement. • (4) In the po group, 0.1 mL of blood was collected from the submandibular vein before and after administration at 15 min, 0.5h, 1h, 2h, 4h, 6h, 8h, 12h and 24h respectively, and processed in the same manner as in the iv group. • (5) The concentration of the compound of the present invention in plasma was determined by a LC/MS/MS method. • (6) The results were calculated and fitted using Analyst 1.6 from AB.

SMILES | change in sample weight (DVS) ([1]; 0% RH-95% RH-0% RH at 25° C.) | hygroscopicity (DVS) ([1]; 0% RH-95% RH-0% RH at 25° C.) | transformation of crystalline form before and after DVS (XRPD comparison) ([1]; XRPD before and after DVS) | solid-state stability: crystalline transformation (XRPD) and purity (HPLC) ([2]; 25° C./60% RH/open, 1 week) | solid-state stability: crystalline transformation (XRPD) and purity (HPLC) ([2]; 40° C./75% RH/open, 1 week) | solid-state stability: crystalline transformation (XRPD) and purity (HPLC) ([2]; 60° C./close, 1 day) | solid-state stability: crystalline transformation (XRPD) and purity (HPLC) ([2]; 80° C./close, 1 day) | pharmacokinetic properties [3]
CCn1c(=O)n(C2CCOCC2)c2nc(Nc3cc(F)c(C(N)=O)cc3C)ncc21 [crystalline form I, 4-((7-ethyl-8-oxo-9-(tetrahydro-2H-pyran-4-yl)-8,9-dihydro-7H-purin-2-yl)amino)-2-fluoro-5-methylbenzamide] | less than 0.2% | free or almost free of hygroscopicity | no transformation of crystalline form occurred | no crystalline transformation or decrease in purity was observed | no crystalline transformation or decrease in purity was observed | no crystalline transformation or decrease in purity was observed | no crystalline transformation or decrease in purity was observed | –
CCn1c(=O)n(C2CCOCC2)c2nc(Nc3cc(F)c(C(N)=O)cc3C)ncc21 [Compound A, 4-((7-ethyl-8-oxo-9-(tetrahydro-2H-pyran-4-yl)-8,9-dihydro-7H-purin-2-yl)amino)-2-fluoro-5-methylbenzamide] | – | – | – | – | – | – | – | good pharmacokinetic properties
